Patent US20190254285A1, “SODIUM PHOSPHITE COMBINATIONS” (priority 2016, published 2019)

Key:
Penicillium discolor = Penicillium discolor rot on wounded apples cv Gala; format: in vivo; details: rot surface area vs untreated control, phosphite 16 mM, natamycin 100 ppm
Protocol: Tested fruit: apples cv Gala from organic origin/SKAL certified. SKAL is a semi-governmental Dutch organization that controls organic production in the Netherlands. Wounds of the apples were checked at day 3. All phosphite concentrations were tested at a concentration of 16 mM of phosphonate. Natamycin (95%, Freda) solo and in combination was tested at a concentration of 100 ppm. […] Used pathogen: Penicillium discolor spore-suspension containing 4*10E6 spores/ml. Application: The fruit peel of the apple was damaged with a cork borer, ø4 mm and depth ˜0.5 cm into the fruit, with 2 wounds per apple. 40 microliter of a freshly prepared spore suspension of P. discolor was applied by pipette onto each wound. Subsequently, the spore-suspension was allowed to air-dry for 4 hours. Then, 50 microliter of a treatment as presented in the list above was applied by pipette to each wound. All fruits were kept at room temperature (20° C.). Wounds of the apples were checked after 4, 7 and 9 days of incubation. The efficacy is calculated by measuring the surface area (square mm) of the rot on the apples, and compared to the untreated control (see Table 4). Replicates: All treatments for the apple experiment were performed on six individual apples with two wounds each resulting in 12 wounds per treatment.

Botrytis cinerea = Botrytis cinerea rot on wounded apple and banana fruit; format: in vivo; parameters: key: Different results are indicated by different letters; Different results are indicated by different letters; Different results are indicated by different letters; Different results are indicated by different letters; Different results are indicated by different letters
Excerpt: Tested fruit: apple (cv Elstar) and a banana (cv Cavendish) from organic origin/SKAL certified. SKAL is a semi-governmental Dutch organization that controls organic production in the Netherlands.
Used pathogen: Botrytis cinerea spore-suspension containing ˜3×10^5 propagules (spores)/ml.
Application: Fruit peel was damaged with a cork borer, depth ˜0.5 cm into the fruit, 2 wounds per apple fruit; 2 wounds per banana fruit. 30 microliters of a freshly prepared spore suspension of B. cinerea (estimated 3×10^5 spores/ml) were applied by pipette onto each wound. Subsequently, the spore-suspension was allowed to air-dry for 3 hours. 50 microliters of fungicide suspensions 1-6 were applied by pipette to each wound.
All fruits were kept at room temperature (20° C.).
Replicates: All treatments (1-6) were performed on 6 individual apples and 6 individual bananas with 2 wounds each resulting in 12 wounds per fruit per treatment. The recorded observed antifungal activity is the reduction (in percentages) of the average surface of the rot as observed in the 12 wounds compared to the rot surface of the untreated control.
Observation: All wounds were inspected daily for visual symptoms of fruit rot and/or fungus growth. Rot surface was determined after 5 and 7 days (see Tables 1, 2 and 3). The recorded observed antifungal activity is the surface of the rot.

## C[C@@H]1C/C=C/C=C/C=C/C=C/[C@H](OC2O[C@H](C)[C@@H](O)[C@H](N)[C@@H]2O)C[C@@H]2O[C@](O)(C[C@@H](O)C[C@H]3O[C@@H]3/C=C/C(=O)O1)C[C@H](O)[C@H]2C(=O)O (stereo partly drawn) [Natamycin, (1R,3S,5R,7R, 8E,12R,14E,16E,18E,20E,22R,24S,25R,26S)-22-[(3-amino-3,6-dideoxy-D-mannopyranosyl)oxy]-1,3,26-trihydroxy-12-methyl-10-oxo-6,11,28-trioxatricyclo[22.3.1.05,7]octacosa-8,14,16,18,20-pentaene-25-carboxylic acid]
Penicillium discolor; Day 4
  Efficacy (%): 23%
Penicillium discolor; Day 7
  Efficacy (%): 10%
Penicillium discolor; Day 9
  Efficacy (%): 9%

## COCC(=O)N(c1c(C)cccc1C)C(C)C(=O)OC (racemic) [mefenoxam, methyl N-(methoxyacetyl)-N-(2,6-xylyl)-DL-alaninate]
Botrytis cinerea; Table 2, phosphonate Control, mefenoxam ¼ label
  Effect on fungicidal attack of Botrytis on apple and banana: e

## C#CCOc1ccc(CCNC(=O)C(OCC#C)c2ccc(Cl)cc2)cc1OC (racemic) [mandipropamid, (RS)-2-(4-chloorfenyl)-N-[3-methoxy-4-(prop-2-ynyloxy)fenethyl]-2-(prop-2-ynyloxy)acetamide]
Botrytis cinerea; Table 1, phosphonate Control, mandipropamid 1/16 label
  Effect on fungicidal attack of Botrytis on apple and banana: e
Botrytis cinerea; Table 1, phosphonate Control, mandipropamid ¼ label
  Effect on fungicidal attack of Botrytis on apple and banana: e
Botrytis cinerea; Table 1, phosphonate Control, mandipropamid ½ label
  Effect on fungicidal attack of Botrytis on apple and banana: d
Botrytis cinerea; Table 1, phosphonate Control, mandipropamid ⅛ label
  Effect on fungicidal attack of Botrytis on apple and banana: e
Botrytis cinerea; Table 3, Na2HPO3 part, phosphonate Control, mandipropamid ¼ label
  Effect on fungicidal attack of Botrytis on apple and banana: d
Botrytis cinerea; Table 3, Na2HPO3 part, phosphonate Control, mandipropamid ⅛ label
  Effect on fungicidal attack of Botrytis on apple and banana: e
Botrytis cinerea; Table 3, NaH2PO3 part, phosphonate Control, mandipropamid ¼ label
  Effect on fungicidal attack of Botrytis on apple and banana: e
Botrytis cinerea; Table 3, NaH2PO3 part, phosphonate Control, mandipropamid ½ label
  Effect on fungicidal attack of Botrytis on apple and banana: d

## O=[PH]([O-])O.[Na+] [NaH2PO3, monosodium dihydrogen phosphite]
Botrytis cinerea; Table 3, NaH2PO3 part, Concentration 1, mandipropamid control
  Effect on fungicidal attack of Botrytis on apple and banana: d
Botrytis cinerea; Table 3, NaH2PO3 part, Concentration 2, mandipropamid control
  Effect on fungicidal attack of Botrytis on apple and banana: c
Botrytis cinerea; Table 3, NaH2PO3 part, Concentration 3, mandipropamid control
  Effect on fungicidal attack of Botrytis on apple and banana: b
